Reference: ChEMBL document CHEMBL1201862, “PubChem BioAssay data set” (2004)
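The compound was tested at five concentrations on cells cultured in 96-well plates, with a 48-hour exposure period. Abbreviation: GI50, concentration required for 50% inhibition of growth.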 The source made the active and inactive calls. No stated cut-off is given here; in the data, active = GI50 up to about 1.1 µM and inactive = higher.

Key:
Assay in all cases: inhibition of tumour cell growth, NCI panel, 48 h
MDA-N = test system: MDA-N
CAKI-1 = test system: CAKI-1
KM12 = test system: KM12
SF-295 = test system: SF-295
SNB-75 = test system: SNB-75
EKVX = test system: EKVX
MOLT-4 = test system: MOLT-4
U-251 = test system: U-251
HT-29 = test system: HT-29
T47D = test system: T47D
HCT-116 = test system: HCT-116
OVCAR-3 = test system: OVCAR-3
SN12C = test system: SN12C
SW-620 = test system: SW-620
LOX IMVI = test system: LOX IMVI
TK-10 = test system: TK-10
RPMI-8226 = test system: RPMI-8226
HL-60 = test system: HL-60
MDA-MB-231 = test system: MDA-MB-231
PC-3 = test system: PC-3
M14 = test system: M14
NCI-H460 = test system: NCI-H460
786-0 = test system: 786-0
NCI-H522 = test system: NCI-H522
OVCAR-8 = test system: OVCAR-8
Malme-3M = test system: Malme-3M
HCC 2998 = test system: HCC 2998
BT-549 = test system: BT-549
HCT-15 = test system: HCT-15
SNB-19 = test system: SNB-19
UO-31 = test system: UO-31
UACC-257 = test system: UACC-257
SK-MEL-5 = test system: SK-MEL-5
SF-268 = test system: SF-268
K562 = test system: K562
ACHN = test system: ACHN
SF-539 = test system: SF-539
SK-MEL-28 = test system: SK-MEL-28
SK-MEL-2 = test system: SK-MEL-2
NCI-H23 = test system: NCI-H23
DU-145 = test system: DU-145
OVCAR-4 = test system: OVCAR-4
A549 = test system: A549
A498 = test system: A498
UACC-62 = test system: UACC-62
COLO 205 = test system: COLO 205
MDA-MB-435 = test system: MDA-MB-435
Hs-578T = test system: Hs-578T
HOP-62 = test system: HOP-62
MCF7 = test system: MCF7
NCI/ADR-RES = test system: NCI/ADR-RES
IGROV-1 = test system: IGROV-1
HOP-92 = test system: HOP-92
RXF 393 = test system: RXF 393
NCI-H226 = test system: NCI-H226
OVCAR-5 = test system: OVCAR-5
SK-OV-3 = test system: SK-OV-3
CCRF-CEM = test system: CCRF-CEM

Measured: GI50

CCC(C)C(C(=O)N/N=C1/SCC(=O)N1C)C(=O)N/N=C1/SCC(=O)N1C (stereo not drawn)
> 100 µM: HCT-15
inactive: MDA-N > 100 µM | CAKI-1 > 100 µM | KM12 > 100 µM | SF-295 > 100 µM | SNB-75 > 100 µM | EKVX > 100 µM | MOLT-4 > 100 µM | U-251 > 100 µM | HT-29 > 100 µM | T47D > 100 µM | HCT-116 > 100 µM | OVCAR-3 > 100 µM | SN12C > 100 µM | SW-620 > 100 µM | LOX IMVI > 100 µM | TK-10 > 100 µM | RPMI-8226 > 100 µM | HL-60 2.04 µM | MDA-MB-231 > 100 µM | PC-3 > 100 µM | M14 > 100 µM | NCI-H460 > 100 µM | 786-0 > 100 µM | NCI-H522 > 100 µM | OVCAR-8 > 100 µM | Malme-3M > 100 µM | HCC 2998 > 100 µM | BT-549 > 100 µM | SNB-19 > 100 µM | UO-31 > 100 µM | UACC-257 > 100 µM | SK-MEL-5 > 100 µM | SF-268 > 100 µM | K562 > 100 µM | ACHN > 100 µM | SF-539 > 100 µM | SK-MEL-28 > 100 µM | SK-MEL-2 > 100 µM | NCI-H23 > 100 µM | DU-145 > 100 µM | OVCAR-4 > 100 µM | A549 > 100 µM | A498 > 100 µM | UACC-62 > 100 µM | COLO 205 > 100 µM | MDA-MB-435 > 100 µM | Hs-578T > 100 µM | HOP-62 > 100 µM | MCF7 > 100 µM | NCI/ADR-RES > 100 µM | IGROV-1 > 100 µM | HOP-92 > 100 µM | RXF 393 > 100 µM | NCI-H226 > 100 µM | OVCAR-5 > 100 µM | SK-OV-3 > 100 µM

CC(C)(C)OC(=O)NCC(=O)N1CCCN(C(=O)CNC(=O)OC(C)(C)C)CC1
inactive: MDA-N > 100 µM | CAKI-1 > 100 µM | KM12 > 100 µM | SF-295 > 100 µM | SNB-75 > 100 µM | EKVX > 100 µM | MOLT-4 > 100 µM | U-251 > 100 µM | HT-29 > 100 µM | T47D > 100 µM | HCT-116 > 100 µM | OVCAR-3 > 100 µM | SN12C > 100 µM | SW-620 > 100 µM | LOX IMVI > 100 µM | TK-10 > 100 µM | RPMI-8226 > 100 µM | HL-60 > 100 µM | MDA-MB-231 > 100 µM | PC-3 > 100 µM | M14 > 100 µM | NCI-H460 > 100 µM | 786-0 > 100 µM | NCI-H522 > 100 µM | OVCAR-8 > 100 µM | Malme-3M > 100 µM | HCC 2998 > 100 µM | BT-549 > 100 µM | SNB-19 > 100 µM | UO-31 > 100 µM | UACC-257 > 100 µM | SK-MEL-5 > 100 µM | SF-268 > 100 µM | K562 > 100 µM | ACHN > 100 µM | SK-MEL-28 > 100 µM | SK-MEL-2 > 100 µM | NCI-H23 > 100 µM | DU-145 > 100 µM | OVCAR-4 > 100 µM | A549 > 100 µM | A498 > 100 µM | UACC-62 > 100 µM | COLO 205 > 100 µM | MDA-MB-435 > 100 µM | Hs-578T > 100 µM | HOP-62 > 100 µM | MCF7 > 100 µM | NCI/ADR-RES > 100 µM | IGROV-1 > 100 µM | HOP-92 > 100 µM | RXF 393 > 100 µM | NCI-H226 > 100 µM | OVCAR-5 > 100 µM | SK-OV-3 > 100 µM
> 100 µM: HCT-15

CC(C)(C)n1c(=O)n2c(-c3ccccc3)c(-c3ccccc3)n2c1=O
> 100 µM: HCT-15
inactive: MDA-N > 100 µM | CAKI-1 > 100 µM | KM12 > 100 µM | SF-295 > 100 µM | SNB-75 > 100 µM | EKVX > 100 µM | U-251 > 100 µM | HT-29 66.7 µM | T47D > 100 µM | HCT-116 25.4 µM | OVCAR-3 > 100 µM | SN12C > 100 µM | SW-620 > 100 µM | LOX IMVI 68.4 µM | TK-10 > 100 µM | RPMI-8226 17.1 µM | HL-60 11.5 µM | MDA-MB-231 > 100 µM | PC-3 44.7 µM | M14 37 µM | NCI-H460 > 100 µM | 786-0 57.5 µM | NCI-H522 17.5 µM | OVCAR-8 > 100 µM | Malme-3M > 100 µM | HCC 2998 49.7 µM | BT-549 53.7 µM | SNB-19 > 100 µM | UO-31 12.5 µM | UACC-257 > 100 µM | SK-MEL-5 71.8 µM | SF-268 > 100 µM | K562 1.24 µM | ACHN > 100 µM | SF-539 36.8 µM | SK-MEL-28 > 100 µM | SK-MEL-2 28.8 µM | NCI-H23 > 100 µM | DU-145 > 100 µM | OVCAR-4 72.6 µM | A549 56.9 µM | A498 > 100 µM | UACC-62 > 100 µM | COLO 205 > 100 µM | MDA-MB-435 > 100 µM | Hs-578T > 100 µM | MCF7 56.6 µM | NCI/ADR-RES > 100 µM | IGROV-1 > 100 µM | HOP-92 > 100 µM | RXF 393 76 µM | NCI-H226 > 100 µM | OVCAR-5 > 100 µM | SK-OV-3 > 100 µM

COc1cc(OC)c(/C=C/c2cnc3ccccc3n2)c(OC)c1
inactive: MDA-N > 10 µM | CAKI-1 > 10 µM | KM12 > 10 µM | SF-295 > 10 µM | SNB-75 > 10 µM | EKVX > 10 µM | U-251 > 10 µM | HT-29 > 10 µM | T47D > 10 µM | HCT-116 > 10 µM | OVCAR-3 > 10 µM | SN12C > 10 µM | SW-620 > 10 µM | LOX IMVI > 10 µM | TK-10 > 10 µM | RPMI-8226 > 10 µM | HL-60 > 10 µM | MDA-MB-231 > 10 µM | PC-3 > 10 µM | M14 > 10 µM | NCI-H460 > 10 µM | 786-0 > 10 µM | NCI-H522 > 10 µM | OVCAR-8 > 10 µM | Malme-3M > 10 µM | HCC 2998 > 10 µM | BT-549 > 10 µM | SNB-19 > 10 µM | UACC-257 > 10 µM | SK-MEL-5 > 10 µM | CCRF-CEM > 10 µM | SF-268 > 10 µM | K562 > 10 µM | ACHN > 10 µM | SF-539 > 10 µM | SK-MEL-28 > 10 µM | SK-MEL-2 > 10 µM | NCI-H23 > 10 µM | DU-145 > 10 µM | OVCAR-4 > 10 µM | A549 > 10 µM | A498 > 10 µM | UACC-62 > 10 µM | COLO 205 > 10 µM | MDA-MB-435 > 10 µM | Hs-578T > 10 µM | HOP-62 > 10 µM | MCF7 > 10 µM | NCI/ADR-RES > 10 µM | IGROV-1 > 10 µM | HOP-92 > 10 µM | RXF 393 > 10 µM | NCI-H226 > 10 µM | OVCAR-5 > 10 µM | SK-OV-3 > 10 µM
active: UO-31 0.0561 µM
> 10 µM: HCT-15

C/C1=C\CC[C@@]2(C)O[C@@H]2C[C@@H]2[C@H](C/C(C)=C/CC1)OC(=O)C21CCN=N1 (stereo partly drawn)
> 75 µM: HCT-15
inactive: MDA-N > 75 µM | CAKI-1 > 75 µM | KM12 > 75 µM | SF-295 32.4 µM | SNB-75 25.9 µM | EKVX > 75 µM | MOLT-4 16 µM | U-251 > 75 µM | HT-29 > 75 µM | T47D > 100 µM | HCT-116 > 75 µM | OVCAR-3 > 75 µM | SN12C 37.8 µM | SW-620 > 75 µM | LOX IMVI 21 µM | TK-10 > 75 µM | RPMI-8226 31.3 µM | HL-60 37.2 µM | MDA-MB-231 > 75 µM | PC-3 > 75 µM | M14 > 75 µM | NCI-H460 39.6 µM | 786-0 > 75 µM | NCI-H522 72.4 µM | OVCAR-8 > 75 µM | Malme-3M > 75 µM | HCC 2998 > 75 µM | BT-549 > 75 µM | SNB-19 > 75 µM | UO-31 > 75 µM | UACC-257 > 75 µM | SK-MEL-5 34.9 µM | CCRF-CEM 15 µM | SF-268 > 75 µM | K562 6.98 µM | ACHN 35.3 µM | SF-539 > 75 µM | SK-MEL-28 > 75 µM | SK-MEL-2 > 75 µM | NCI-H23 > 75 µM | DU-145 > 75 µM | OVCAR-4 61.8 µM | A549 51.2 µM | A498 > 100 µM | UACC-62 > 75 µM | COLO 205 > 75 µM | MDA-MB-435 > 75 µM | Hs-578T 38 µM | HOP-62 27.9 µM | MCF7 > 75 µM | NCI/ADR-RES > 75 µM | IGROV-1 > 75 µM | HOP-92 > 75 µM | RXF 393 > 75 µM | NCI-H226 > 100 µM | OVCAR-5 > 75 µM | SK-OV-3 > 75 µM
